We go through ten molecules from PMC9804910 (Chembiochem, 2022).

By IC50 is commonly meant the midpoint of a concentration-inhibition curve. Low readings indicate greater potency in that assay, high ones weaker potency in that assay.

Data set [1] has as its system CT‐26 (mouse colon adenocarcinoma). Put plainly: Fluorometric cell viability assay (Resazurin), 2D monolayer. Type of data set: cell-based. Conditions: for IC50: CT‐26, 48 h. As for the experimental part: (§1) The first step toward the biological investigation of complexes 3–8 was the evaluation of cell viability in monolayer cultures of CT‐26 (mouse colon adenocarcinoma), PC‐3 (human prostate adenocarcinoma), and RPE‐1 (human normal retina pigmented epithelial) cell lines using a fluorometric cell viability assay with the Resazurin reagent. Cisplatin and 1 were tested in the same cell lines as positive and additional controls.
(§2) Cell cultures: The CT‐26 cell line was cultured in DMEM media (Gibco) supplemented with 10 % foetal calf serum (Gibco) and 1 % penicillin‐streptomycin antibiotic (Gibco). The PC‐3 cell line was cultured in F12‐K media (Gibco) supplemented with 10 % foetal calf serum (Gibco) and 1 % Penicillin‐Streptomycin antibiotic (Gibco). The RPE‐1 cell line was cultured in DMEM/F‐12 media (Gibco) supplemented with 10 % foetal calf serum and 1 % Penicillin‐Streptomycin antibiotic (Gibco). Cell lines were maintained in a humidified atmosphere at 37 °C with 5 % CO2.
(§3) Cytotoxicity assay using a 2D cellular model: The cytotoxicity of the tested Ru complexes was assessed by a fluorometric cell viability assay using Resazurin (Acros Organics). Briefly, cells were seeded in triplicate in 96‐well plates at a 4×10^3 cells/ well density in 100 μL. After 24 h, cells were treated with increasing concentrations of the ruthenium complexes and controls. Dilutions for complexes 3–8 were prepared as follows: 10 mM stock solution in DMSO was diluted to 100–0.01 μM with medium. After 48 h of incubation, the medium was removed, and 100 μL of complete medium containing resazurin (0.2 mg/mL final concentration) was added. After 4 h of incubation at 37 °C, the fluorescence signal of the resorufin product was read (ex 540 nm, em 590 nm) in an Infinite 200 PRO Microplate Reader from TECAN. IC50 values were then calculated using GraphPad Prism software.
(In general: Alamar Blue is a resazurin reagent that responds to reducing activity.)

Data set [2] concerns PC‐3 (human prostate adenocarcinoma). The data set is described as above. Type of data set: cell-based. Conditions: PC‐3, 48 h. Here is the method:
as §1, §2, §3

Data set [3] concerns RPE‐1 (human normal retina pigmented epithelial). The description is as above. Type of data set: cell-based. Conditions: RPE‐1, 48 h. As for the experimental part:
as §1, §2, §3

Data set [4] has as its system CT‐26 cells. The data set is described as follows: Mito stress test (Seahorse, oxygen consumption rate). Conditions: CT‐26, 24 h treatment; 1 (1 μM), 3 (5 μM), 4 (0.5 μM), 5 (10 μM), 6 (25 μM), 7 (10 μM), 8 (25 μM). Type of data set: cell-based, mouse. As for the experimental part:
To further study the mechanism of action of complexes 3–8, their influence on the cellular metabolism of CT‐26 cells was investigated. Figure 6 represents the Mito stress test profile after 24 h of treatment; the oxygen consumption rate (OCR) changes with specific electron‐transport chain inhibitors. Oligomycin (inhibitor of ATP synthase (complex V)), FCCP (uncoupling agent), antimycin‐A (complex III inhibitors), and rotenone (complex I inhibitor) were employed in this study. In general, both cationic compounds 4 and 7 affected the mitochondrial processes. It is evident from the low basal respiration and the inhibition of ATP production compared to untreated cells (orange dots) that the mitochondrial membrane of the cells treated with such complexes lost the capacity to restore the proton balance when treated with an uncoupling agent (FCCP). The maximal respiration (the OCR value when the mitochondrial membrane is uncoupled) and spare respiratory capacity (difference in the OCR values between maximal respiration and basal respiration) of the cells were reduced compared to those of untreated cells (Figure 6). […] The results with complex 4 are consistent with its measured large mitochondrial uptake (see above).
Metabolic studies: mito stress test: CT‐26 cells were seeded in Seahorse XFe 96‐ well plates at a density of 20 000 cells/well in 80 μL of the medium. After 24 h, the medium was replaced with fresh medium, and either complex 1 (1 μM), 3 (5 μM), 4 (0.5 μM), 5 (10 μM), 6 (25 μM), 7 (10 μM), or 8 (25 μM) was added. After 24 h of incubation, the regular medium was removed, and cells were washed three times using Seahorse base media and incubated in a non‐CO2 incubator at 37 °C for 1 h. A Mito stress assay was run using 1 μM oligomycin, 1 μM FCCP, and a mixture of 1 μM antimycin‐A/1 μM rotenone in ports A−C, respectively, using a Seahorse XFe96 extracellular flux analyser.

Data set [5] deals with HeLa cells. On the set-up: method as in PMID 32065454. Conditions: cited from earlier work.
The test system of data set [6] is CT‐26 cells. The data set is described as follows: ICP‐MS cellular uptake. Type of data set: cell-based, mouse. Here is the method: The cellular uptake of the complexes 3–8 was then investigated in CT‐26 cells by determining the amount of Ru inside the cells using inductively coupled plasma mass spectrometry (ICP‐MS) after 2 h of incubation at 5 μM. […] This is most probably due to the higher lipophilicity of the DIP ligand compared to phen. […] In contrast, the neutral complexes with the DIP ligand (3 and 5) present a lower uptake (ca. 50 %) compared the phen analogues 6 and 8. This observation is rather counter‐intuitive since compounds 3 and 5 have a higher cytotoxicity than 6 and 8. The lower uptake of the DIP complexes 3 and 5 might be due to the lower solubility of these complexes in the cell culture medium. However, taken together, the uptake and cytotoxicity data imply that 3 and 5 have a higher specific cytotoxic activity compared to the phen analogues 6 and 8, reasonably attributable to their higher lipophilicity.
ICP‐MS cellular uptake studies: CT‐26 cells were seeded at a density of 1×10^6. The next day, cells were treated with 5 μM of the corresponding complex diluted in the cell culture medium from a 10 mM stock solution in DMSO. After 2 h, cells were collected, counted, and stored at −80 °C. ICP‐MS samples were prepared as follows: samples were digested using 70 % nitric acid (1 mL, 60 °C, overnight) and then further diluted 1 : 100 (1 % HCl solution in MQ water) analysed using ICP‐MS. All ICP‐MS measurements were performed on an Agilent 7900 Quadrupole ICP‐MS located at the Institut de Physique du Globe de Paris (France). The monitored isotopes are 99 and 101 Ru. Daily, before the analytical sequence, an indium internal‐standard was injected after inline mixing with the samples to correct for signal drift and matrix effects. A set of calibration standards was analysed to confirm and model (through simple linear regression) the linear relationship between signal and concentration. The model was then used to convert measured sample counts to concentrations. Reported uncertainties were calculated using error propagation equations and considering the combination of standard deviation on replicated consecutive signal acquisitions (n=3), internal‐standard ratio and blank subtraction. The non‐linear term (internal‐standard ratio) was linearized using a first‐order Taylor series expansion to simplify error propagation. The amount of metal detected in the cell samples was transformed from ppb to μg of metal. Data were subsequently normalized to the number of cells and expressed as μmol of metal/number of cells.

Data set [7] deals with CT‐26 cells. Put plainly: Cellular fractionation (mitochondria and nucleus isolation, Ru content). Conditions: CT‐26, 5 μM, 4 h. Type of data set: cell-based, mouse. Here is the method:
Additionally, we choose the best candidate from the cytotoxicity experiments, namely [Ru(DIP)2(η^2‐acac)]Cl (4), to explore its cellular localisation. For this, we performed cellular fractionation experiments to ascertain in which organelle it localizes.
Sample preparation for cellular fractionation: CT‐26 cells were seeded in three 15 cm^2 cell culture dishes and cells were 90 % confluent on the day of treatment. On the day of treatment, cells were incubated with the target complex at a concentration of 5 μM for 4 h, then the medium was removed and the cells were washed, collected, and counted. After re‐suspension in cold PBS, the organelles were isolated by using different protocols (one cell culture dish per isolation was used).
Mitochondria and nucleus isolation : To isolate mitochondria, a Mitochondria Isolation Kit (Cat. Nr: MITOISO2, SigmaAldrich) and Nucleus Isolation Kit (NUC‐101) were used according to the manufacturer procedure for the isolation of mitochondria via homogenization method.

A short description of data set [8]: Stability in human plasma (UV-Vis and HPLC). The class given is in vitro ADME. Conditions: 37 °C. Here is the method: The biological activity of anticancer drugs candidates is strongly influenced by their stability in DMSO, medium cell culture, and human plasma. For this reason, we performed stability studies of complexes 3–8 at 37 °C in DMSO and DMEM medium (Gibco) (Supporting Information Figures S1 ‐ S2). […] Finally, the stability of the compounds was investigated by incubating them in human plasma at 37 °C for 48 h, followed by UV‐Vis and HPLC analysis. […] After 48 h, only 15 % of the complex was still intact, as observed by HPLC (Supporting Information Figure S5).
Stock solutions of each complex (2 mM) and caffeine (2 mM) were prepared in dimethyl sulfoxide. 50 μL of both stock solutions (complex and caffeine) were added to 400 μL of human plasma, achieving 500 μL. The resulting solutions were incubated upon continuous gentle shaking (ca. 300 rpm) for 48 h at 37 °C. After this time, the incubation was ended by adding 1 mL of methanol. The mixture was centrifuged for 45 min at 3000 rpm and 4 °C. The solution was filtered through a 0.2 μm membrane filter and submitted to HPLC analysis, that were carried out on a Jupiter Proteo column (250×4.6 mm, 4 μm, flow rate: 1 mL/min). The solvents (HPLC grade) were Millipore water (solvent A) and acetonitrile (solvent B). […] The flow rate was 1 mL min^−1, and the chromatogram was detected at 215 nm.

The test system of data set [9] is different tumour cells. On the set-up: method as in PMID 17199281. Conditions: cited from earlier work.
Data set [10] deals with cancer cells. More on the design: method as in PMID 25313823. Conditions: 2 h incubation; cited from earlier work.

As for `Cc1occc(=O)c1[O-].F[P-](F)(F)(F)(F)F.[Ru+2].c1ccc(-c2ccnc3c2ccc2c(-c4ccccc4)ccnc23)cc1.c1ccc(-c2ccnc3c2ccc2c(-c4ccccc4)ccnc23)cc1` [Compound 1, [Ru(DIP)2(mlt)](PF6), reference compound], the IC50 was 0.37 ± 0.12 µM in data set [1], 1.84 ± 0.23 µM in data set [2] and 0.67 ± 0.14 µM in [3]. Moreover, in data set [4], the “effect on mitochondrial respiration (basal respiration, OCR profile) vs untreated cells” value (“effect … vs untreated cells” for short) was “severe impairment of mitochondrial respiration”. Also, the subcellular accumulation entry in data set [5] is reported as “accumulate more in the nucleus than in mitochondria”.
Regarding `CC(=O)C=C(C)[O-].[Cl-].[Ru+2].c1ccc(-c2ccnc3c2ccc2c(-c4ccccc4)ccnc23)cc1.c1ccc(-c2ccnc3c2ccc2c(-c4ccccc4)ccnc23)cc1` [Compound 4, [Ru(DIP)2(η^2‐acac)]Cl], the IC50 in data set [1] worked out at 0.41 ± 0.1 µM. For the same molecule, the “selectivity towards CT‐26 and PC‐3 cancer cell lines compared to healthy cell line RPE‐1” value in data set [1] (from IC50 values, 48 h) is listed as “no selectivity”. This molecule registered an IC50 in data set [2] of 0.62 ± 0.19 µM. In data set [3], this molecule returned an IC50 of 0.5 ± 0.12 µM. The “cellular uptake compared to neutral DIP complexes 3 and 5” value in [6] (CT‐26) is on record as “at least three times larger”. Moreover, in data set [6] (CT‐26, 5 μM, 2 h), the “cellular uptake compared to phen counterpart 7” value was “almost three times larger” and the “cellular uptake compared to reference complex 1” value was “ca. three times larger”. Also, the “cellular uptake (amount of Ru inside the cells)” value in data set [6] (CT‐26, 5 μM, 2 h incubation) is “most significant uptake”. In data set [7], the “fraction detected in the nucleus (of the total amount of Ru)” value is listed as “ca. 10%” and the “localization in mitochondria (of the total amount of Ru)” value is recorded as “ca. 50%”. Besides, the “effect … vs untreated cells” value in data set [4] is reported as “severe impairment of mitochondrial respiration”.
As to `O=C([O-])C(=O)[O-].[Ru+2].c1ccc(-c2ccnc3c2ccc2c(-c4ccccc4)ccnc23)cc1.c1ccc(-c2ccnc3c2ccc2c(-c4ccccc4)ccnc23)cc1` [Compound 5, [Ru(DIP)2(η^2‐ox)]], the concentration for half-maximal inhibition (IC50) in data set [1] worked out at 24.1 ± 2.5 µM; in data set [2], 21.1 ± 2.29 µM; in data set [3], 14.5 ± 3 µM. In data set [6] (CT‐26, 5 μM, 2 h), the “lower uptake compared to the phen analogues 6 and 8” value was “ca. 50%”.
With `O=C([O-])CC(=O)[O-].[Ru+2].c1cnc2c(c1)ccc1cccnc12.c1cnc2c(c1)ccc1cccnc12` [Compound 6, [Ru(phen)2(η^2‐mal)]], the IC50 in data set [1], in data set [2] and in data set [3] was greater than 100 µM throughout. Further, the “stability in human plasma (UV‐vis spectra and HPLC chromatograms before and after incubation)” value in data set [8] (48 h) is on record as “chemical transformation”. In data set [8] (after 48 h), the “complex still intact (HPLC)” value is recorded as 15%.
`CC(=O)C=C(C)[O-].[Cl-].[Ru+2].c1cnc2c(c1)ccc1cccnc12.c1cnc2c(c1)ccc1cccnc12` [Compound 7, [Ru(phen)2(η^2‐acac)]Cl]: the values for the half-maximal inhibitory concentration (IC50) in [1], in [2] and in data set [3] were 10.3 ± 0.74 µM, greater than 100 µM and greater than 100 µM, respectively. For the same molecule, the “effect … vs untreated cells” value in data set [4] is given as “severe impairment of mitochondrial respiration”.
For the molecule `O=C([O-])C(=O)[O-].[Ru+2].c1cnc2c(c1)ccc1cccnc12.c1cnc2c(c1)ccc1cccnc12` [Compound 8, [Ru(phen)2(η^2‐ox)]], the IC50 in data set [1], in data set [2] and in data set [3] was greater than 100 µM throughout.
With `[Ru+2].c1ccc(-c2ccnc3c2ccc2c(-c4ccccc4)ccnc23)cc1.c1ccc(-c2ccnc3c2ccc2c(-c4ccccc4)ccnc23)cc1.c1ccc2nc3c4cccnc4c4ncccc4c3nc2c1` [[Ru(DIP)2(dppz)]^2+], the “inhibition against tumour cells” value in data set [9] is listed as “low inhibition”.
On to `N.N.[Cl][Pt][Cl]` [cisplatin, reference compound], for which the figures for the IC50 in data set [1], in data set [2] and in [3] were 1.94 ± 0.72 µM, 10.3 ± 1.14 µM and 20.1 ± 3.91 µM, respectively.
In the case of [Ru(DIP)2(η^2‐mal)] [Compound 3], the figures for the IC50 in data set [1], in data set [2] and in data set [3] were 5.63 ± 0.34 µM, 4.92 ± 0.33 µM and 5 ± 0.7 µM, respectively. In data set [6] (CT‐26, 5 μM, 2 h), the “lower uptake compared to the phen analogues 6 and 8” value is on record as “ca. 50%”.
Regarding [Ru(bpy)(phpy)(dppz)]^+, the “complex accumulated in nuclei” value in data set [10] was roughly 90%.
